# From patent publication US20190175571A1, “IMIDAZOLE DERIVATIVES AND THEIR USE IN THE TREATMENT OF AUTOIMMUNE OR INFLAMMATORY DISEASES OR CANCERS” (GLAXOSMITHKLINE INTELLECTUAL PROPERTY (NO.2) LIMITED, priority 2016, published 2019)
# Columns and labels:
# BRDT BD1 = target: T1, BRDT BD1 (Homo sapiens, UniProt Q58F21, Y309A); experiment: TR-FRET competition assay, BRDT BD1; assay type: binding; settings: TR-FRET competition with Reference Compound X; range stated for the listed group; read-out: mean pIC50 in the BRDT BD1 assay (converted)
# T1 construct: BRDT (1-397) (Y66A) and (Y309A); made in house; host or cells: E. coli (pET28a)
# BRDT BD2 = target: T2, BRDT BD2 (Homo sapiens, UniProt Q58F21, Y66A); experiment: TR-FRET competition assay, BRDT BD2; assay type: binding; settings: TR-FRET competition with Reference Compound X; range stated for the listed group; read-out: mean pIC50 in the BRDT BD2 assay (converted)
# T2 construct: BRDT (1-397) (Y66A) and (Y309A); made in house; host or cells: E. coli (pET28a)
# BRD2 BD2 = target: T3, BRD2 BD2 (Homo sapiens, UniProt P25440, Y113A); experiment: TR-FRET competition assay, BRD2 BD2; assay type: binding; settings: TR-FRET competition with Reference Compound X; range stated for the listed group; read-out: mean pIC50 in the BRD2 BD2 assay (converted)
# T3 construct: BRD2 (1-473) (Y113A) and (Y386A); made in house; host or cells: E. coli (pET15b)
# BRD2 BD1 = target: T4, BRD2 BD1 (Homo sapiens, UniProt P25440, Y386A); experiment: TR-FRET competition assay, BRD2 BD1; assay type: binding; settings: TR-FRET competition with Reference Compound X; range stated for the listed group; read-out: mean pIC50 in the BRD2 BD1 assay (converted)
# T4 construct: BRD2 (1-473) (Y113A) and (Y386A); made in house; host or cells: E. coli (pET15b)
# BRD3 BD2 = target: T5, BRD3 BD2 (Homo sapiens, UniProt Q15059, Y73A); experiment: TR-FRET competition assay, BRD3 BD2; assay type: binding; settings: TR-FRET competition with Reference Compound X; range stated for the listed group; read-out: mean pIC50 in the BRD3 BD2 assay (converted)
# T5 construct: BRD3 (1-435) (Y73A) and (Y348A); made in house; host or cells: E. coli (pET15b)
# BRD3 BD1 = target: T6, BRD3 BD1 (Homo sapiens, UniProt Q15059, Y348A); experiment: TR-FRET competition assay, BRD3 BD1; assay type: binding; settings: TR-FRET competition with Reference Compound X; range stated for the listed group; read-out: mean pIC50 in the BRD3 BD1 assay (converted)
# T6 construct: BRD3 (1-435) (Y73A) and (Y348A); made in house; host or cells: E. coli (pET15b)
# MCP-1 production = experiment: LPS induced MCP-1 production from human whole blood; assay type: cell-based; settings: human whole blood, LPS 200 ng/mL, 18-24 hours; read-out: mean pIC50, LPS induced MCP-1 production (converted)
# BRD4 BD2 = target: T7, BRD4 BD2 (Homo sapiens, UniProt O60885, Y97A); experiment: TR-FRET competition assay, BRD4 BD2; assay type: binding; settings: TR-FRET competition with Reference Compound X, single mutant tandem protein; read-out: mean pIC50 in the BRD4 BD2 assay (converted)
# T7 construct: BRD4 (1-477) (Y97A) and (Y390A); made in house; host or cells: E. coli (pET15b)
# BRD4 BD1 = target: T8, BRD4 BD1 (Homo sapiens, UniProt O60885, Y390A); experiment: TR-FRET competition assay, BRD4 BD1; assay type: binding; settings: TR-FRET competition with Reference Compound X, single mutant tandem protein; read-out: mean pIC50 in the BRD4 BD1 assay (converted)
# T8 construct: BRD4 (1-477) (Y97A) and (Y390A); made in house; host or cells: E. coli (pET15b)
# [1] = tested on: TNP-KLH induced Immunoglobulin-1 (IgG1) production; experiment: TNP-KLH induced IgG1 production mouse assay; assay type: in vivo; settings: for Day 14 IgG1: male CD1 mice
# [2] = tested on: double mutant tandem BET proteins (BRD2, BRD3, BRD4, BRDT); experiment: Fluorescence Polarisation binding of Reference Compound X to mutant tandem BET proteins; parameters: species or system human
# T3 sequence (P25440 1-473 Y113A): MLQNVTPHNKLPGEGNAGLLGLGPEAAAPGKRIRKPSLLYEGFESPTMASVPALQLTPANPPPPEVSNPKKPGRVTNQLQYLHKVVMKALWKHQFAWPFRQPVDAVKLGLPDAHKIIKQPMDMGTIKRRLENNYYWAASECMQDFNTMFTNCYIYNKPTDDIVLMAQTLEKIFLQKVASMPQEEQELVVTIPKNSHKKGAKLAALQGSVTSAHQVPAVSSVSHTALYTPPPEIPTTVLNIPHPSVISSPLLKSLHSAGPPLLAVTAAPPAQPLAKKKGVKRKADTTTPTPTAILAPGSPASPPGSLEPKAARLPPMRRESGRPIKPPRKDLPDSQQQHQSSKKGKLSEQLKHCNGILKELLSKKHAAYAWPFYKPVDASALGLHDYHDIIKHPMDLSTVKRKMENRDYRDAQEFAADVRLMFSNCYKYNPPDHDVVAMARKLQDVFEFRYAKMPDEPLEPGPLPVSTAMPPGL
# T4 sequence (P25440 1-473 Y386A): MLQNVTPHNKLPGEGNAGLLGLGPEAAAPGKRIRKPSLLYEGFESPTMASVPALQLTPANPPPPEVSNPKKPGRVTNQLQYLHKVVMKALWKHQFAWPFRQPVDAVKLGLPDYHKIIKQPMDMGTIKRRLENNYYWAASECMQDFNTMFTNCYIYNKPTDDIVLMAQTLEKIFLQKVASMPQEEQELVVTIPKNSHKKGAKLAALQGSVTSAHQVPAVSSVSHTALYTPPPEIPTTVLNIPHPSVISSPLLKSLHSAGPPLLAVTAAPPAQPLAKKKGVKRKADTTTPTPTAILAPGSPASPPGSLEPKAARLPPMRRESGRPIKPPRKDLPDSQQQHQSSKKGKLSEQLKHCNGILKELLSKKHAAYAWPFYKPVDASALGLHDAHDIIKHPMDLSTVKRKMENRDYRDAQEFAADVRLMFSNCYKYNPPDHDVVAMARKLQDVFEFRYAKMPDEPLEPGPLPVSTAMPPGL
# T6 sequence (Q15059 1-435 Y348A): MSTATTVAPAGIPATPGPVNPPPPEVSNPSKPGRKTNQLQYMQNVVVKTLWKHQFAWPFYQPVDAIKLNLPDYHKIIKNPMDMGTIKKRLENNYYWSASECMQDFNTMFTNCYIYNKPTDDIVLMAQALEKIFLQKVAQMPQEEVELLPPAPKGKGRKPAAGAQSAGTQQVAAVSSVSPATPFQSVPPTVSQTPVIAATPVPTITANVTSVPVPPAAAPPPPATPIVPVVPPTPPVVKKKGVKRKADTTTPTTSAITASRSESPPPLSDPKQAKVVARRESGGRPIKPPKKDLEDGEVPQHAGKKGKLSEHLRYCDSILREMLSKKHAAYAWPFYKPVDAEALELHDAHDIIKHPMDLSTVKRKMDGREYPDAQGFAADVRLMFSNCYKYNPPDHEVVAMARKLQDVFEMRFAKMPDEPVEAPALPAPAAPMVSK
# T5 sequence (Q15059 1-435 Y73A): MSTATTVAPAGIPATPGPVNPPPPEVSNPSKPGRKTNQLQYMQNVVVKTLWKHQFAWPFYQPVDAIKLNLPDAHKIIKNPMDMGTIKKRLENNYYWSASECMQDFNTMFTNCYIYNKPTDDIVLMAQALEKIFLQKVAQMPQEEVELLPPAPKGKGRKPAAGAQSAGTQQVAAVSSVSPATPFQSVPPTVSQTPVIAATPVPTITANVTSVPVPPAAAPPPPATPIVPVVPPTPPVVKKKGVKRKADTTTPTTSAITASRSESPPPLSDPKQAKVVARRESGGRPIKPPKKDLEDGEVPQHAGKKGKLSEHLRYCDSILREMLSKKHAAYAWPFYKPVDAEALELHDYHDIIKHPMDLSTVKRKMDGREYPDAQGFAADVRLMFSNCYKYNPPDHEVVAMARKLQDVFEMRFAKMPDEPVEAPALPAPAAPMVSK
SMILES,IC50 (BRDT BD1) [nM],IC50 (BRDT BD2) [nM],IC50 (BRD2 BD2) [nM],IC50 (BRD2 BD1) [nM],other results
"CC(=O)N1CCCC(Cn2cc(Cl)nc2-c2cc(C)c(=O)n(C)c2)C1 (single isomer, unassigned) [Example 25, 5-(1-((1-acetylpiperidin-3-yl)methyl)-4-chloro-1H-imidazol-2-yl)-1,3-dimethylpyridin-2(1H)-one]",39.8 to 12600,2000 to 25100,1000 to 50100,12.6 to 7940,IC50 (BRD3 BD2): 251 to 1000 nM; IC50 (BRD3 BD1): 20 to 79.4 nM
"Cc1cc(-c2nc(Cl)cn2CC2CCCOC2)cn(C)c1=O (single isomer, unassigned) [Example 29, 5-(4-chloro-1-((tetrahydro-2H-pyran-3-yl)methyl)-1H-imidazol-2-yl)-1,3-dimethylpyridin-2(1H)-one]",39.8 to 12600,2000 to 25100,1000 to 50100,12.6 to 7940,IC50 (BRD3 BD2): 251 to 1000 nM; IC50 (BRD3 BD1): 20 to 79.4 nM
"Cc1cc(-c2ncc[nH]2)cn(C)c1=O [Example 1, 5-(1H-imidazol-2-yl)-1,3-dimethylpyridin-2(1H)-one]",39.8 to 12600,> 50100,1000 to 50100,12.6 to 7940,
"COCC(COC)n1cc(Cl)nc1-c1cc(C)c(=O)n(C)c1 [Example 22, 5-(4-chloro-1-(1,3-dimethoxypropan-2-yl)-1H-imidazol-2-yl)-1,3-dimethylpyridin-2(1H)-one]",,,,,IC50 (MCP-1 production): 100 nM; IC50 (BRD4 BD2): 2000 nM; IC50 (BRD4 BD1): 50.1 nM
"Cc1cc(-c2nc(Cl)cn2CC2CCOCC2)cn(C)c1=O [Example 30, 5-(4-chloro-1-((tetrahydro-2H-pyran-4-yl)methyl)-1H-imidazol-2-yl)-1,3-dimethylpyridin-2(1H)-one]",,,,,"% reduction in IgG1 from vehicle ([1]; day 14, 1.5 mg/kg BID oral): 0%; % reduction in IgG1 from vehicle ([1]; day 14, 5.0 mg/kg BID oral, ***P<0.01): 86*** %; % reduction in IgG1 from vehicle ([1]; day 14, 15 mg/kg BID oral, ***P<0.01): 99*** %; Day 14 IgG1 ([1]; 1.5 mg/kg BID oral, 14 days): 5.01 ± 3.30 µg/mL; Day 14 IgG1 ([1]; 5.0 mg/kg BID oral, 14 days): 0.85 ± 1.18 µg/mL; Day 14 IgG1 ([1]; 15 mg/kg BID oral, 14 days): 0.03 ± 0.03 µg/mL; adverse side effects during in life phase ([1]; male CD1 mice, 1.5, 5 or 15 mg/kg BID oral, 14 days): No adverse side effects were observed; IC50 (BRD3 BD1): 20 to 79.4 nM"
"Cc1cc(-c2nc(C(=O)O)cn2CC2CCOCC2)cn(C)c1=O [Example 35, 2-(1,5-dimethyl-6-oxo-1,6-dihydropyridin-3-yl)-1-((tetrahydro-2H-pyran-4-yl)methyl)-1H-imidazole-4-carboxylic acid]",,,,,IC50 (MCP-1 production): > 20000 nM
COc1ccc2c(c1)C(c1ccc(Cl)cc1)=N[C@@H](CC(=O)NCCCCCNC(=O)CCCCCC1(C)/C(=C/C=C/C=C/C3=[N+](CCCCS(=O)(=O)O)c4ccc(S(=O)(=O)O)cc4C3(C)C)N(CCCCS(=O)(=O)[O-])c3ccc(S(=O)(=O)O)cc31)c1nnc(C)n1-2 (stereo partly drawn) [Reference Compound X],,,,,"reduction in Kd versus non mutated, wild type tandem BET proteins [2]: > 1000 fold"

# Now from value to compound, other results behind:
IC50 (BRDT BD1) [nM],IC50 (BRDT BD2) [nM],IC50 (BRD2 BD2) [nM],IC50 (BRD2 BD1) [nM],SMILES,other results
39.8 to 12600,2000 to 25100,1000 to 50100,12.6 to 7940,"Cc1cc(-c2nccn2CC2CCCCO2)cn(C)c1=O (racemic) [Example 7, rac-1,3-dimethyl-5-(1-((tetrahydro-2H-pyran-2-yl)methyl)-1H-imidazol-2-yl)pyridin-2(1H)-one]",
39.8 to 12600,2000 to 25100,1000 to 50100,12.6 to 7940,"Cc1cc(-c2nccn2CC2CC2)cn(C)c1=O [Example 3, 5-(1-(cyclopropylmethyl)-1H-imidazol-2-yl)-1,3-dimethylpyridin-2(1H)-one]",
39.8 to 12600,2000 to 25100,1000 to 50100,12.6 to 7940,"Cc1cc(-c2nccn2CC(C)C)cn(C)c1=O [Example 5, 5-(1-isobutyl-1H-imidazol-2-yl)-1,3-dimethylpyridin-2(1H)-one]",
39.8 to 12600,2000 to 25100,1000 to 50100,12.6 to 7940,"Cc1cc(-c2nccn2CC2CCOCC2)cn(C)c1=O [Example 6, 1,3-dimethyl-5-(1-((tetrahydro-2H-pyran-4-yl)methyl)-1H-imidazol-2-yl)pyridin-2(1H)-one]",
